In patent US7022855B2, “Halogen-substituted quinoline derivatives and ectoparasite control agent” (Meiji Seika Kaisha, Ltd., priority 2001, dated 2006):

What was measured:
Type in all cases: in vivo
[1] = system: Haemaphysalis longicornis; assay: Tickcidal effect against Haemaphysalis longicornis (dry film on glass Schale); settings: larva ticks, 24 hr, 25° C., relative humidity 100%; for pest or weed control at 10 ppm: Haemaphysalis longicornis, read-out: Death rate, %; for Death rate, %: 10 ppm
Description: A test compound solution (1.0 ml) prepared by dissolving a test compound in acetone and diluting the solution with acetone to 10 ppm was dropped on a glass Schale having a diameter of 9 cm. Acetone was evaporated at room temperature to form a dry film of the test compound at the bottom of the Schale. Larva ticks of Haemaphysalis longicornis (40 to 100 head) were released in the Petri dish, and the Schale was then lidded and was hermetically sealed by covering with a polyethylene sheet. Rearing was carried out at a temperature of 25° C. and a relative humidity of 100% under fully darkened conditions. The number of ticks, which have fallen on their side, was counted 24 hr after the initiation of rearing. The death rate (%) was determined from the number of dead ticks. The test was repeated twice.

Ornithonyssus sylviarum = assay: Miticidal effect against Ornithonyssus sylviarum (treated Pasteur pipette, contact test); settings: 50 ppm in acetone, sucking adult mites, 24 hr after treatment, 25° C., read-out: Death rate, %
Description: (§1) The tip of a Pasteur pipette was sealed with Parafilm, and a sample compound diluted with acetone to 50 ppm was poured into the pipette from its top. The Parafilm in the tip of the pipette was removed one min after the pouring to discharge the test solution, and the pipette was air dried. Thereafter, an absorbent cotton was inserted into the upper end of the pipette, and 10 sucking adult mites of Ornithonyssus sylviarum were released in the pipette. The tip of the pipette was sealed with Hematoseal, and the pipette was then placed in a desiccator containing a saturated ammonium sulfate solution in its bottom and was stored under fully darkened conditions at 25° C. The mites were observed under a stereomicroscope 24 hr after the treatment to judge whether the mites were dead or survived, followed by determination of the death rate (%).

Dermanyssus gallinae = assay: Miticidal effect against Dermanyssus gallinae (treated Pasteur pipette, contact test); settings: 50 ppm in acetone, sucking adult mites, 24 hr after treatment, 25° C.; for pest or weed control at 50 ppm: Dermanyssus gallinae, read-out: Death rate, %
Description: as §1, with “mites of Dermanyssus gallinae were released” for “mites of Ornithonyssus sylviarum were released”, “death rate of mites (%).” for “death rate (%).”

Ctenocephalides felis = assay: Insecticidal effect against Ctenocephalides felis (dry film in glass tube); settings: non-sucking adult fleas, 24 hr, 25° C., relative humidity 90%
Description: Test compound solutions (0.5 ml) prepared by dissolving a test compound in acetone and diluting the solutions with acetone to designated concentrations were placed respectively in glass tubes (inner diameter 2.6 cm, height 12 cm), and acetone was evaporated at room temperature to form a dry film of the test compound at the bottom of each glass tube. Non-sucking adult fleas (10 heads) of Ctenocephalides felis were released in the glass tubes. The glass tubes were then lidded. Whether the fleas were dead or survived was judged 24 hr after the initiation of rearing. The death rate (%) was determined from the number of dead fleas. Rearing was carried out at a temperature of 25° C. and a relative humidity of 90% under fully darkened conditions. The test was repeated three times.

| Compound | pest or weed control at 50 ppm (Ornithonyssus sylviarum) [%] | pest or weed control at 50 ppm (Dermanyssus gallinae) [%] | also measured |
| --- | --- | --- | --- |
| CCc1nc2ccc(F)c(F)c2c(OC(=O)C2CC2)c1C [Compound 2, 2-ethyl-3-methyl-4-cyclopropanecarbonyloxy-5,6-difluoroquinoline] | 100 | 100 | pest or weed control at 10 ppm [1]: 100%; Death rate, % (Ctenocephalides felis; 4 ppm): 97%; Death rate, % (Ctenocephalides felis; 20 ppm): 100% |
| C#CCCOC(=O)Oc1c(C)c(CC)nc2ccc(F)c(F)c12 [Compound 56, 2-ethyl-3-methyl-4-(3-butynyl)oxycarbonyloxy-5,6-difluoroquinoline] | – | 95 | pest or weed control at 10 ppm [1]: 100% |
| CC(=O)Oc1c(C)c(C)nc2ccc(F)c(F)c12 [Compound 44, 2,3-dimethyl-4-acetoxy-5,6-difluoro-quinoline] | – | 100 | pest or weed control at 10 ppm [1]: 100% |
| CCc1nc2ccc(F)c(F)c2c(OC(C)=O)c1C [Compound 12, 2-ethyl-3-methyl-4-acetyloxy-5,6-difluoroquinoline] | 100 | 95 | – |
| CCc1nc2ccc(F)c(Cl)c2c(OC(=O)C2CC2)c1C [Compound 21, 2-ethyl-3-methyl-4-cyclopropanecarbonyloxy-5-chloro-6-fluoroquinoline] | 100 | – | – |
| CCc1nc2ccc(F)c(F)c2c(OC(=O)SC)c1C [Compound 39, 2-ethyl-3-methyl-4-methanethiolcarbonyloxy-5,6-difluoroquinoline] | – | – | Death rate, % [1]: 100%; Death rate, % (Dermanyssus gallinae): 100%; Death rate, % (Ctenocephalides felis; 4 ppm): 80% |
| CCC(=O)Oc1c(C)c(CC)nc2ccc(F)c(F)c12 [Compound 30, 2-ethyl-3-methyl-4-propionyloxy-5,6-difluoroqinoline] | – | – | Death rate, % [1]: 100%; Death rate, % (Dermanyssus gallinae): 100% |
| CCOC(=O)Oc1c(C)c(CC)nc2ccc(F)c(F)c12 [Compound 33, 2-ethyl-3-methyl-4-ethoxycarbonyl-oxy-5,6-difluoroquinoline] | – | 100 | – |
| CCOC(=O)Oc1c(C)c(C)nc2ccc(F)c(F)c12 [Compound 45, 2,3-dimethyl-4-ethyloxycarbonyloxy-5,6-difluoroquinoline] | – | 100 | – |
| CCCCOC(=O)Oc1c(C)c(CC)nc2ccc(F)c(F)c12 [Compound 13, 2-ethyl-3-methyl-4-butoxycarbonyloxy-5,6-difluoroquinoline] | – | 85 | – |
| COC(=O)Oc1c(C)c(C)nc2ccc(F)c(F)c12 [Compound 25, 2,3-dimethyl-4-methoxycarbonyl-oxy-5,6-difluoroquinoline] | 100 | 100 | pest or weed control at 10 ppm [1]: 100% |
| CSC(=O)Oc1c(C)c(C)nc2ccc(F)c(F)c12 [Compound 46, 2,3-dimethyl-4-methanethiolcarbonyloxy-5,6-difluoro-quinoline] | – | – | Death rate, % [1]: 100%; Death rate, % (Dermanyssus gallinae): 100% |
| C#CCCCC(=O)Oc1c(C)c(C)nc2ccc(F)c(F)c12 [Compound 58, 2,3-dimethyl-4-(5-hexynoyloxy)-5,6-difluoroquinoline] | – | 80 | – |
| CCc1nc2cc(F)c(F)cc2c(OC(=O)C2CC2)c1C [Compound 1, 2-ethyl-3-methyl-4-cyclopropanecarbonyloxy-6,7-difluoroquinoline] | 80 | – | Death rate, % (Ctenocephalides felis; 20 ppm): 100% |
| COC(=O)Oc1c(C)c(C)nc2ccc(Cl)c(Cl)c12 [Compound 67, 2,3-dimethyl-4-methoxycarbonyloxy-5,6-dichloroquinoline] | – | 100 | – |
| Cc1nc2ccc(F)c(F)c2c(OC(=O)/C=C/Cl)c1C [Compound 53, 2,3-dimethyl-4-(3-transchloroacryloyloxy)-5,6-difluoroquinoline] | – | 100 | – |
| CC(=O)Oc1c(C)c(C)nc2ccc(Cl)c(Cl)c12 [Compound 65, 2,3-dimethyl-4-acetoxy-5,6-dichloro-quinoline] | – | 80 | – |
| CCCSC(=O)Oc1c(C)c(CC)nc2ccc(F)c(F)c12 [Compound 55, 2-ethyl-3-methyl-4-propanethiolcarbonyloxy-5,6-difluoroquinoline] | – | – | Death rate, % (Dermanyssus gallinae): 100% |
| C#CCCOC(=O)Oc1c(C)c(C)nc2ccc(F)c(F)c12 [Compound 52, 2,3-dimethyl-4-(3-butynyl)oxycarbonyloxy-5,6-difluoroquinoline] | – | 100 | pest or weed control at 10 ppm [1]: 100%; Death rate, % (Ctenocephalides felis; 4 ppm): 70% |
| C=COC(=O)Oc1c(C)c(C)nc2ccc(F)c(F)c12 [Compound 51, 2,3-dimethyl-4-vinyloxycarbonyloxy-5,6-difluoroquinoline] | – | 90 | – |
| Cc1nc2ccc(F)c(F)c2c(OC(=O)/C=C\Cl)c1C [Compound 54, 2,3-dimethyl-4-(3-cischloroacryloyloxy)-5,6-difluoroquinoline] | – | 100 | – |
| CCc1nc2ccc(F)c(Cl)c2c(OC(C)=O)c1C [Compound 19, 2-ethyl-3-methyl-4-acetyloxy-5-chloro-6-fluoroquinoline] | 100 | – | Death rate, % (Ctenocephalides felis; 4 ppm): 100% |
| CCc1nc2ccc(F)c(F)c2c(OC(=O)C(C)C)c1C [Compound 48, 2-ethyl-3-methyl-4-isobutyryloxy-5,6-difluoroquinoline] | – | 100 | – |
| C=CCOC(=O)Oc1c(C)c(C)nc2ccc(F)c(F)c12 [Compound 57, 2,3-dimethyl-4-allyloxycarbonyloxy-5,6-difluoroquinoline] | – | 100 | – |
| 2,3-dimethyl-4-propargloxycarbonyloxy-5,6-difluoroquinoline [Compound 50] | – | – | Death rate, % [1]: 100%; Death rate, % (Dermanyssus gallinae): 95% |
| CCc1nc2ccc(F)c(F)c2c(OC(=O)OC(C)C)c1C [Compound 14, 2-ethyl-3-methyl-4-isopropoxycarbonyloxy-5,6-difluoroquinoline] | 100 | – | – |
| COC(=O)Oc1c(C)c(C)nc2ccc(F)c(C(F)(F)F)c12 [Compound 62, 2,3-dimethyl-4-methoxycarbonyloxy-5-trifluoromethyl-6-fluoroquinoline] | – | 100 | – |
| C#CCOC(=O)Oc1c(C)c(CC)nc2ccc(F)c(F)c12 [Compound 41, 2-ethyl-3-methyl-4-propargyloxycarbonyloxy-5,6-difluoroquinoline] | – | 100 | pest or weed control at 10 ppm [1]: 100% |
| CCc1nc2ccc(F)c(F)c2c(OC(=O)OC)c1C [Compound 24, 2-ethyl-3-methyl-4-methoxycarbonyloxy-5,6-difluoroquinoline] | 100 | 100 | pest or weed control at 10 ppm [1]: 100%; Death rate, % (Ctenocephalides felis; 4 ppm): 84%; Death rate, % (Ctenocephalides felis; 20 ppm): 100% |
| Cc1nc2ccc(F)c(F)c2c(OC(=O)C2CC2)c1C [Compound 16, 2,3-dimethyl-4-cyclopropanecarbonyloxy-5,6-difluoroquinoline] | 80 | 100 | pest or weed control at 10 ppm [1]: 100% |
